Values of other authors in PubChem BioAssay AID1259409 (Chemical Carcinogenesis Research Information System (CCRIS), 2018).

System: rodent chemically induced tumor inhibition, incidence and multiplicity
Experiment: CCRIS tumor inhibitor studies
Details: Carcinogen: 7,12-DIMETHYLBENZ[A]ANTHRACENE, 57-97-6, Route [Inhibitor]: DERMAL, Species: MOUSE, Target Tissue: Type of Lesion: SKIN: PAPILLOMA, Dose [Carcinogen]: 200 NMOL IN 0.2 ML ACETONE ONCE, Promoter: 12-O-TETRADECANOYLPHORBOL-13-ACETATE, 16561-29-8

C/C(=C\c1ccc(C(=O)O)cc1)c1cc2c(s1)CCCC2(C)C
tumour outcome (control, treated, inhibition, significance) (Dose [Inhibitor]: 0.17 NMOL IN 0.2 ML ACETONE 1 HR PRIOR TO EACH PROMOTER DOSE FOR 12 WK (STUDY DURATION: 14 WK), Strain/Sex: SENCAR/FEMALE): 100%, 100%, 0%, not calculated
tumour outcome (control, treated, inhibition, significance) (Dose [Inhibitor]: 0.17 NMOL IN 0.2 ML ACETONE 1 HR PRIOR TO EACH PROMOTER DOSE FOR 20 WK (STUDY DURATION: 22 WK), Strain/Sex: CD-1/FEMALE): 94%, 89%, 5%, not calculated
tumour outcome (control, treated, inhibition, significance) (Dose [Inhibitor]: 1.7 NMOL IN 0.2 ML ACETONE 1 HR PRIOR TO EACH PROMOTER DOSE FOR 12 WK (STUDY DURATION: 14 WK), Strain/Sex: SENCAR/FEMALE): 100%, 80%, 20%, not calculated
tumour outcome (control, treated, inhibition, significance) (Dose [Inhibitor]: 1.7 NMOL IN 0.2 ML ACETONE 1 HR PRIOR TO EACH PROMOTER DOSE FOR 20 WK (STUDY DURATION: 22 WK), Strain/Sex: CD-1/FEMALE): 94%, 52%, 45%, not calculated
tumour outcome (control, treated, inhibition, significance) (Dose [Inhibitor]: 17 NMOL IN 0.2 ML ACETONE 1 HR PRIOR TO EACH PROMOTER DOSE FOR 12 WK (STUDY DURATION: 14 WK), Strain/Sex: SENCAR/FEMALE): 100%, 3%, 97%, not calculated
tumour outcome (control, treated, inhibition, significance) (Dose [Inhibitor]: 17 NMOL IN 0.2 ML ACETONE 1 HR PRIOR TO EACH PROMOTER DOSE FOR 20 WK (STUDY DURATION: 22 WK), Strain/Sex: CD-1/FEMALE): 94%, 0%, 100%, not calculated
